Test results reported in patent US20030181436A1, “Treatment for AIDS, HIV, and other related diseases and compounds for use therewith” (priority 2001, published 2003).

Test system: ACH-2 cells
Assay: ACH-2 assay, compound toxicity by MTS dye reduction
Format: cell-based
Set-up: Y. CC / 9′. CC: unit not given here
Details: exp 2
Method: At assay termination the assay plates were stained with the soluble tetrazolium-based dye MTS (CellTiter® Reagent, Promega) to determined cell viability and quantify compound toxicity. […] At termination of the assay 20 μL of MTS reagent was added per well. The wells were incubated for 4 h at 37° C., 5% CO2. Adhesive plate scalers were used in place of the lids, the sealed plate was inverted several times to mix the soluble formazan product and the plate was read spectrophotometrically at 490 nm with a 650 nm reference wavelength on a Molecular Devices Vmax plate reader.
U1 and ACH-2 cells were obtained from the AIDS Research and Reference Reagent Program and maintained under standard culture conditions in RPMI 1640 supplemented with 10% fetal bovine serum (heat inactivated), supplemented with 2 mM […], 100U/ml penicillin and 100 μg/ml, streptomycin. U1 cells were derived from the histocytic leukemia cell line U937, and contain a single integrated copy (HIV IIIB) […] a cytokine and/or phorbol inducible provirus. ACH-2 cells are derived from the A3.01 T lymphoblastic cell line, and contain 2 copies of the HIV IIIB provirus, however only one is cytokine and/or phorbol inducible. Cultures were maintained in such a way as to ensure exponential growth of the populations. At the time of the assay, cells were collected by centrifugation and counted by hemacytometer. If cell viability by Trypan Blue dye exclusion was less than 70% the assay was terminated. The cells were adjusted to 5×10^4 cells/mL and 100 μL, placed in 96 well plates with 100 μL media containing a final concentration of […] TNFα and the test compound. Cultures were incubated for 3 days and supernatants harvested. Compound toxicity was determined by MTS dye reduction. Virus expression was measured by supernatant reverse transcriptasc activity.

Potassium Iodiscorbate [Compound K]
TOXICITY VALUES (MTS) MEAN (0.00063 uM): 0.990 O. D. | Y. CC (0.00063 uM): 78.2 | TOXICITY VALUES (MTS) MEAN (0.002 uM): 1.004 O. D. | Y. CC (0.002 uM): 79.3 | TOXICITY VALUES (MTS) MEAN (0.00625 uM): 1.000 O. D. | Y. CC (0.00625 uM): 78.9 | TOXICITY VALUES (MTS) MEAN (0.02 uM): 0.943 O. D. | Y. CC (0.02 uM): 74.4 | TOXICITY VALUES (MTS) MEAN (0.0625 uM): 0.891 O. D. | Y. CC (0.0625 uM): 70.3 | TOXICITY VALUES (MTS) MEAN (0.2 uM): 0.830 O. D. | Y. CC (0.2 uM): 65.6 | TOXICITY VALUES (MTS) MEAN (0.625 uM): 0.826 O. D. | Y. CC (0.625 uM): 65.2 | TOXICITY VALUES (MTS) MEAN (2 uM): 0.694 O. D. | Y. CC (2 uM): 54.8 | TOXICITY VALUES (MTS) MEAN (6.25 uM): 0.208 O. D. | Y. CC (6.25 uM): 16.4 | TOXICITY VALUES (MTS) MEAN (20 uM): 0.040 O. D. | Y. CC (20 uM): 3.2 | TOXICITY VALUES (MTS) MEAN (62.5 uM): 0.020 O. D. | Y. CC (62.5 uM): 1.6 | TOXICITY VALUES (MTS) MEAN (200 uM): 0.028 O. D. | Y. CC (200 uM): 2.2
